Test results taken from the kinase profiling compilation of Christmann-Franck et al. (2016).

Tests used:
Assay in all cases: KINOMEscan competition binding
Conditions in all cases: compound 10.0 µM
STK35 (human) = STK35 (human) (UniProt Q8TDR2)
MAP3K12 (human) = MAP3K12 (human) (UniProt Q12852)
ACVR1 (human) = ACVR1 (human) (UniProt Q04771)
BRSK1 (human) = BRSK1 (human) (UniProt Q8TDC3)
PIP5K1A (human) = PIP5K1A (human) (UniProt Q99755)
INSR (human) = INSR (human) (UniProt P06213)
STK38 (human) = STK38 (human) (UniProt Q15208)
NEK4 (human) = NEK4 (human) (UniProt P51957)
VRK2 (human) = VRK2 (human) (UniProt Q86Y07)
FGFR3 (human) = FGFR3 (human) (UniProt P22607)
ERBB3 (human) = ERBB3 (human) (UniProt P21860)
EIF2AK2 (human) = EIF2AK2 (human) (UniProt P19525)
MARK4 (human) = MARK4 (human) (UniProt Q96L34)
IKBKB (human) = IKBKB (human) (UniProt O14920)
PAK1 (human) = PAK1 (human) (UniProt Q13153)
MATK (human) = MATK (human) (UniProt P42679)
CSNK1E (human) = CSNK1E (human) (UniProt P49674)
EIF2AK1 (human) = EIF2AK1 (human) (UniProt Q9BQI3)
CASK (human) = CASK (human) (UniProt O14936)
TAOK3 (human) = TAOK3 (human) (UniProt Q9H2K8)
DDR1 (human) = DDR1 (human) (UniProt Q08345)
STK3 (human) = STK3 (human) (UniProt Q13188)
MKNK1 (human) = MKNK1 (human) (UniProt Q9BUB5)
TNK1 (human) = TNK1 (human) (UniProt Q13470)
ANKK1 (human) = ANKK1 (human) (UniProt Q8NFD2)
IRAK1 (human) = IRAK1 (human) (UniProt P51617)
STK11 (human) = STK11 (human) (UniProt Q15831)
MAPK3 (human) = MAPK3 (human) (UniProt P27361)
NEK9 (human) = NEK9 (human) (UniProt Q8TD19)
SBK1 (human) = SBK1 (human) (UniProt Q52WX2)
ITK (human) = ITK (human) (UniProt Q08881)
LATS1 (human) = LATS1 (human) (UniProt O95835)
RPS6KB1 (human) = RPS6KB1 (human) (UniProt P23443)
SRC (human) = SRC (human) (UniProt P12931)
PAK4 (human) = PAK4 (human) (UniProt O96013)
NEK3 (human) = NEK3 (human) (UniProt P51956)
DMPK (human) = DMPK (human) (UniProt Q09013)
CDKL3 (human) = CDKL3 (human) (UniProt Q8IVW4)
KDR (human) = KDR (human) (UniProt P35968)
LIMK2 (human) = LIMK2 (human) (UniProt P53671)
ROCK1 (human) = ROCK1 (human) (UniProt Q13464)

Sequence of DDR1 (human) (Q08345 whole entry, looked up): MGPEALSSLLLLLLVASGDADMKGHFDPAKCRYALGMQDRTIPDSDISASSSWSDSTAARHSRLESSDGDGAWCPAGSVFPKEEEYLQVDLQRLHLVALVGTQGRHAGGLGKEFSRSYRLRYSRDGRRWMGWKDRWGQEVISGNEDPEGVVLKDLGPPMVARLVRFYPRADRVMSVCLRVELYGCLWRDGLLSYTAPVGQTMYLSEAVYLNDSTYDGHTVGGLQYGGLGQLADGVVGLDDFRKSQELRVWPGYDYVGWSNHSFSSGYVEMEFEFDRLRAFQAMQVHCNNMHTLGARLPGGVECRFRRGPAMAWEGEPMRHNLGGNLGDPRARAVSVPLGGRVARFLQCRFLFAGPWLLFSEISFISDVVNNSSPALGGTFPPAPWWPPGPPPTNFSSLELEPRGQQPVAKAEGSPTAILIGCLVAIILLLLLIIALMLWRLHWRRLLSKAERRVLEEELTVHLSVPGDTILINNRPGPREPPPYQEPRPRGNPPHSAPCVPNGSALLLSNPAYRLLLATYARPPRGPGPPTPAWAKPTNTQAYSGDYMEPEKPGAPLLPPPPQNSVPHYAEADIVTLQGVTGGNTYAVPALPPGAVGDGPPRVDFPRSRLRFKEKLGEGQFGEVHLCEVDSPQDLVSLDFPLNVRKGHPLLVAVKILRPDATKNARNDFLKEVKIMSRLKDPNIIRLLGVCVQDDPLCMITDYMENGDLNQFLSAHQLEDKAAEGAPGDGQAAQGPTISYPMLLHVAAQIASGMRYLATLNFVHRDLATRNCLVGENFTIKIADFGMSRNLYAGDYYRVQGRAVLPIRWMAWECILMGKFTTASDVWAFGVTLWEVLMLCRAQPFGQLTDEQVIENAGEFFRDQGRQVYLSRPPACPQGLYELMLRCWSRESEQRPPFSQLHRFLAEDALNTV
Sequence of BRSK1 (human) (Q8TDC3 whole entry, looked up): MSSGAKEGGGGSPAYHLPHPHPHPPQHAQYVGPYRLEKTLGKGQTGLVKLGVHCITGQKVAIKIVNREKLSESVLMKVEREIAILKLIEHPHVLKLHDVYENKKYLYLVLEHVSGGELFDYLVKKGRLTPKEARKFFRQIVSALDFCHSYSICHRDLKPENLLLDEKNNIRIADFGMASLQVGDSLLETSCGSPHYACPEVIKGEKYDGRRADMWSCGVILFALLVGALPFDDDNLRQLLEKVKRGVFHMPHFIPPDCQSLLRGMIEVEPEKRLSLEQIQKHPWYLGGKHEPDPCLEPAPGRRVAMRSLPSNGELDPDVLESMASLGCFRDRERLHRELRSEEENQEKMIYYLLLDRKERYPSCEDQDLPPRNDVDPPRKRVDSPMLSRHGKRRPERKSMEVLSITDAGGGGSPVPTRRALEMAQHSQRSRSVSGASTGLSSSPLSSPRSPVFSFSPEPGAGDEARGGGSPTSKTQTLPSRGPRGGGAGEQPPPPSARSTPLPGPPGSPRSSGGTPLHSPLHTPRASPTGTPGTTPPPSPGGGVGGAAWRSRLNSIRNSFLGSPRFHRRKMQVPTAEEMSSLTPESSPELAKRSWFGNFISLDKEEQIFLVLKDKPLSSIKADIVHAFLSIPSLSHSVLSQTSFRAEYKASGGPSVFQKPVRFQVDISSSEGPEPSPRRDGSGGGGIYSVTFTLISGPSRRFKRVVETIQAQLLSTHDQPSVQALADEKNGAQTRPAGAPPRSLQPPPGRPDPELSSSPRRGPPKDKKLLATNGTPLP
Sequence of STK35 (human) (Q8TDR2 whole entry, looked up): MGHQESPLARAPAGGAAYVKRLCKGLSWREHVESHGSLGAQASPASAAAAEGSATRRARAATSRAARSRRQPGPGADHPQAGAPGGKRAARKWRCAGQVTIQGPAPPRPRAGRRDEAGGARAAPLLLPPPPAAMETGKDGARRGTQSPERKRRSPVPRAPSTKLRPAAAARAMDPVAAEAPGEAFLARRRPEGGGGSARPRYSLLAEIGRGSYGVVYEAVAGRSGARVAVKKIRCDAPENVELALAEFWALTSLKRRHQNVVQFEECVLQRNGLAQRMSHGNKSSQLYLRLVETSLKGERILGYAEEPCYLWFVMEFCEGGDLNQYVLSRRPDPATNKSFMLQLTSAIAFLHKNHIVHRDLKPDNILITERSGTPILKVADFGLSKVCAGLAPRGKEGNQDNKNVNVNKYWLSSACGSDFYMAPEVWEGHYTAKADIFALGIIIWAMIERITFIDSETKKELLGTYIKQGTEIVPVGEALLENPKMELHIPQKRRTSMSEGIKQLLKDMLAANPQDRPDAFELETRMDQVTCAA
Sequence of MATK (human) (P42679 whole entry, looked up): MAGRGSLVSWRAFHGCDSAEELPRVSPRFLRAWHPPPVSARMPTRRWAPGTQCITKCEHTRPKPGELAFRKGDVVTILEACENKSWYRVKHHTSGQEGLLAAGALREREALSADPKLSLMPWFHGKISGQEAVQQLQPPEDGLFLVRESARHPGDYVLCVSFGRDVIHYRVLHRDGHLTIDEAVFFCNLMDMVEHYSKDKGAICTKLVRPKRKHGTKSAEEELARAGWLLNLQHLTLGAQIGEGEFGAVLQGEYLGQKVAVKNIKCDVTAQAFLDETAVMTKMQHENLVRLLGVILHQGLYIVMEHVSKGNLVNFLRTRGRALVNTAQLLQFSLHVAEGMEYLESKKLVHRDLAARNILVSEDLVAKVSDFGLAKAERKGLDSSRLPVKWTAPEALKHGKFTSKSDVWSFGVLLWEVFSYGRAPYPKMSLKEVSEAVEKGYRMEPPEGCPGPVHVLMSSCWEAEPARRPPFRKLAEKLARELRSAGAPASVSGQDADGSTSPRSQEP
Sequence of NEK3 (human) (P51956 whole entry, looked up): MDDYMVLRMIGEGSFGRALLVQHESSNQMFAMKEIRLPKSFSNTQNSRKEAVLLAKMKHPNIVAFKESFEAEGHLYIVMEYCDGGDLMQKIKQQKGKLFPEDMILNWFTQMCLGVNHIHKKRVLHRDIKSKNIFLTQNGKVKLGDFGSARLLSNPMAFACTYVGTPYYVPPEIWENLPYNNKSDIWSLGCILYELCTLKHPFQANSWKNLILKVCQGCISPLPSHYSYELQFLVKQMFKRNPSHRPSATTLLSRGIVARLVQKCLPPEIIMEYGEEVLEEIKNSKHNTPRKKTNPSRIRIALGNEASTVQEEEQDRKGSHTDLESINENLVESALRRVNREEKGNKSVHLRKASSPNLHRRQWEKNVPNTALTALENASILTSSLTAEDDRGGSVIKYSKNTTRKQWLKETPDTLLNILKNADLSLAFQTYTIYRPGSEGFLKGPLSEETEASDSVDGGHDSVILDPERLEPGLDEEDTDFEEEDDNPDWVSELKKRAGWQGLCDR
Sequence of DMPK (human) (Q09013 whole entry, looked up): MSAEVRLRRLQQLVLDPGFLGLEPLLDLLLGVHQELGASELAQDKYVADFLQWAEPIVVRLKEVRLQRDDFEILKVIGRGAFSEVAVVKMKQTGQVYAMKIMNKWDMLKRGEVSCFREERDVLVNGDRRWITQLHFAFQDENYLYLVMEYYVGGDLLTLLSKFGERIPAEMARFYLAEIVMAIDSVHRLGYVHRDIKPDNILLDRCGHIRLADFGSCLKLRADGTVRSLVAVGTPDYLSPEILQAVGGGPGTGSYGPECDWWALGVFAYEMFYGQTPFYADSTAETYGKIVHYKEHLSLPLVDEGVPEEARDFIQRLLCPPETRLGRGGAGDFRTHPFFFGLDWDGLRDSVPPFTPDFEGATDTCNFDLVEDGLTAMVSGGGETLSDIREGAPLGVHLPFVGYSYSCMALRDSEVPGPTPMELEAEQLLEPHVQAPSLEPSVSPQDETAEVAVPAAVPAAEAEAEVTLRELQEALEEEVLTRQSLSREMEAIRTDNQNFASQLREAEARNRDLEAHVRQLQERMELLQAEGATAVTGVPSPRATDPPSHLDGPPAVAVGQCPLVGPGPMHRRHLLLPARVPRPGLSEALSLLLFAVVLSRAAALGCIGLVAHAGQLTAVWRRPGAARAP
Sequence of FGFR3 (human) (P22607 whole entry, looked up): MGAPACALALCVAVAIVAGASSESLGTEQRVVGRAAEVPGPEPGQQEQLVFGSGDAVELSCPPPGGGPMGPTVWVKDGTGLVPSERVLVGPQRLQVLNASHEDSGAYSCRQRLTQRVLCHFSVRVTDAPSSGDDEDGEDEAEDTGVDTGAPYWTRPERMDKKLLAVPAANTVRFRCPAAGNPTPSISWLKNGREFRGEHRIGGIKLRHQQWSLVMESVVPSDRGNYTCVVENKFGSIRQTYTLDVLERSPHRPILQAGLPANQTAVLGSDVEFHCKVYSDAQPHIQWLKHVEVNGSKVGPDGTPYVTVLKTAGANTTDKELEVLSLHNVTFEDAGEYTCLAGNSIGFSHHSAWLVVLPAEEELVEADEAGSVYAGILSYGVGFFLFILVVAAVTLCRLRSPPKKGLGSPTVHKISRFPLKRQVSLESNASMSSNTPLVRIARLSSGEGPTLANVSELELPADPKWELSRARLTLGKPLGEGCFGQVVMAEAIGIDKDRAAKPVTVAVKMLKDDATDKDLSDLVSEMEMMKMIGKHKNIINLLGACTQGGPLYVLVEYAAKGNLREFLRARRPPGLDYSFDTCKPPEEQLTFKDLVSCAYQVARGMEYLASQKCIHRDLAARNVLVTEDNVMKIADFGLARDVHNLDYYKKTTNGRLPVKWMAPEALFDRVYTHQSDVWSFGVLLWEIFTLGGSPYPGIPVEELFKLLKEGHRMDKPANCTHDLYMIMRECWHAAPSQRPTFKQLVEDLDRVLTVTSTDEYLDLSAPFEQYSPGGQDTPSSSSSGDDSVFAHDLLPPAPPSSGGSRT
Sequence of MAPK3 (human) (P27361 whole entry, looked up): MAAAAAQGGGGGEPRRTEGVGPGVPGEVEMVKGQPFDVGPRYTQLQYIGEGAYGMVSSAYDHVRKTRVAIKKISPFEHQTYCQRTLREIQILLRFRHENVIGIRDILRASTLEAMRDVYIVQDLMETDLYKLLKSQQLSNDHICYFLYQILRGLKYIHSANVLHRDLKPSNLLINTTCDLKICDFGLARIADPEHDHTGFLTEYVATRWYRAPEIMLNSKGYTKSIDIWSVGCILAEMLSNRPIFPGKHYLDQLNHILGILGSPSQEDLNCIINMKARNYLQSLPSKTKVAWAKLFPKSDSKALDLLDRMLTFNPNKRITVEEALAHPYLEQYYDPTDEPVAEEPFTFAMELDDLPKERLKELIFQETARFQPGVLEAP

COc1cc2ncnc(Nc3cccc(Cl)c3)c2cc1OC
kinase still bound, per cent of control (STK35 (human)): 58%
kinase still bound, per cent of control (MAP3K12 (human)): 92%
kinase still bound, per cent of control (ACVR1 (human)): 74%
kinase still bound, per cent of control (BRSK1 (human)): 37%
kinase still bound, per cent of control (PIP5K1A (human)): 93%
kinase still bound, per cent of control (INSR (human)): 62%
kinase still bound, per cent of control (STK38 (human)): 61%
kinase still bound, per cent of control (NEK4 (human)): 76%
kinase still bound, per cent of control (VRK2 (human)): 35%
kinase still bound, per cent of control (FGFR3 (human)): 99%
kinase still bound, per cent of control (ERBB3 (human)): 18%
kinase still bound, per cent of control (EIF2AK2 (human)): 52%
kinase still bound, per cent of control (MARK4 (human)): 100%
kinase still bound, per cent of control (IKBKB (human)): 66%
kinase still bound, per cent of control (PAK1 (human)): 85%
kinase still bound, per cent of control (MATK (human)): 48%
kinase still bound, per cent of control (CSNK1E (human)): 32%
kinase still bound, per cent of control (EIF2AK1 (human)): 65%
kinase still bound, per cent of control (CASK (human)): 67%
kinase still bound, per cent of control (TAOK3 (human)): 78%
kinase still bound, per cent of control (DDR1 (human)): 1.9%
kinase still bound, per cent of control (STK3 (human)): 91%
kinase still bound, per cent of control (MKNK1 (human)): 4.6%
kinase still bound, per cent of control (TNK1 (human)): 26%
kinase still bound, per cent of control (ANKK1 (human)): 63%
kinase still bound, per cent of control (IRAK1 (human)): 5.6%
kinase still bound, per cent of control (STK11 (human)): 86%
kinase still bound, per cent of control (MAPK3 (human)): 88%
kinase still bound, per cent of control (NEK9 (human)): 78%
kinase still bound, per cent of control (SBK1 (human)): 25%
kinase still bound, per cent of control (ITK (human)): 100%
kinase still bound, per cent of control (LATS1 (human)): 100%
kinase still bound, per cent of control (RPS6KB1 (human)): 63%
kinase still bound, per cent of control (SRC (human)): 9.9%
kinase still bound, per cent of control (PAK4 (human)): 84%
kinase still bound, per cent of control (NEK3 (human)): 78%
kinase still bound, per cent of control (DMPK (human)): 79%
kinase still bound, per cent of control (CDKL3 (human)): 76%
kinase still bound, per cent of control (KDR (human)): 31%
kinase still bound, per cent of control (LIMK2 (human)): 100%
kinase still bound, per cent of control (ROCK1 (human)): 41%

C=CC(=O)Nc1ccc(C(=O)c2sc(Nc3ccc(N4CCN(C)CC4)cc3OC)nc2N)cc1
kinase still bound, per cent of control (STK35 (human)): 94%
kinase still bound, per cent of control (MAP3K12 (human)): 79%
kinase still bound, per cent of control (ACVR1 (human)): 100%
kinase still bound, per cent of control (BRSK1 (human)): 98%
kinase still bound, per cent of control (PIP5K1A (human)): 34%
kinase still bound, per cent of control (INSR (human)): 98%
kinase still bound, per cent of control (STK38 (human)): 67%
kinase still bound, per cent of control (NEK4 (human)): 97%
kinase still bound, per cent of control (VRK2 (human)): 96%
kinase still bound, per cent of control (FGFR3 (human)): 78%
kinase still bound, per cent of control (ERBB3 (human)): 93%
kinase still bound, per cent of control (EIF2AK2 (human)): 100%
kinase still bound, per cent of control (MARK4 (human)): 85%
kinase still bound, per cent of control (IKBKB (human)): 85%
kinase still bound, per cent of control (PAK1 (human)): 73%
kinase still bound, per cent of control (MATK (human)): 25%
kinase still bound, per cent of control (CSNK1E (human)): 66%
kinase still bound, per cent of control (EIF2AK1 (human)): 100%
kinase still bound, per cent of control (CASK (human)): 100%
kinase still bound, per cent of control (TAOK3 (human)): 23%
kinase still bound, per cent of control (DDR1 (human)): 100%
kinase still bound, per cent of control (STK3 (human)): 98%
kinase still bound, per cent of control (MKNK1 (human)): 34%
kinase still bound, per cent of control (TNK1 (human)): 22%
kinase still bound, per cent of control (ANKK1 (human)): 100%
kinase still bound, per cent of control (IRAK1 (human)): 41%
kinase still bound, per cent of control (STK11 (human)): 86%
kinase still bound, per cent of control (MAPK3 (human)): 100%
kinase still bound, per cent of control (NEK9 (human)): 100%
kinase still bound, per cent of control (SBK1 (human)): 85%
kinase still bound, per cent of control (ITK (human)): 74%
kinase still bound, per cent of control (LATS1 (human)): 82%
kinase still bound, per cent of control (RPS6KB1 (human)): 100%
kinase still bound, per cent of control (SRC (human)): 100%
kinase still bound, per cent of control (PAK4 (human)): 95%
kinase still bound, per cent of control (NEK3 (human)): 70%
kinase still bound, per cent of control (DMPK (human)): 12%
kinase still bound, per cent of control (CDKL3 (human)): 100%
kinase still bound, per cent of control (KDR (human)): 100%
kinase still bound, per cent of control (LIMK2 (human)): 100%
kinase still bound, per cent of control (ROCK1 (human)): 42%

N#Cc1cc(-c2ccnc(Nc3ccc(-n4cnc(-c5cccnc5)n4)cc3)n2)cc(N2CCOCC2)c1
kinase still bound, per cent of control (STK35 (human)): 48%
kinase still bound, per cent of control (MAP3K12 (human)): 63%
kinase still bound, per cent of control (ACVR1 (human)): 23%
kinase still bound, per cent of control (BRSK1 (human)): 85%
kinase still bound, per cent of control (PIP5K1A (human)): 17%
kinase still bound, per cent of control (INSR (human)): 78%
kinase still bound, per cent of control (STK38 (human)): 92%
kinase still bound, per cent of control (NEK4 (human)): 100%
kinase still bound, per cent of control (VRK2 (human)): 100%
kinase still bound, per cent of control (FGFR3 (human)): 74%
kinase still bound, per cent of control (ERBB3 (human)): 69%
kinase still bound, per cent of control (EIF2AK2 (human)): 48%
kinase still bound, per cent of control (MARK4 (human)): 78%
kinase still bound, per cent of control (IKBKB (human)): 38%
kinase still bound, per cent of control (PAK1 (human)): 65%
kinase still bound, per cent of control (MATK (human)): 62%
kinase still bound, per cent of control (CSNK1E (human)): 95%
kinase still bound, per cent of control (EIF2AK1 (human)): 100%
kinase still bound, per cent of control (CASK (human)): 78%
kinase still bound, per cent of control (TAOK3 (human)): 28%
kinase still bound, per cent of control (DDR1 (human)): 100%
kinase still bound, per cent of control (STK3 (human)): 100%
kinase still bound, per cent of control (MKNK1 (human)): 100%
kinase still bound, per cent of control (TNK1 (human)): 25%
kinase still bound, per cent of control (ANKK1 (human)): 55%
kinase still bound, per cent of control (IRAK1 (human)): 9.3%
kinase still bound, per cent of control (STK11 (human)): 11%
kinase still bound, per cent of control (MAPK3 (human)): 100%
kinase still bound, per cent of control (NEK9 (human)): 63%
kinase still bound, per cent of control (SBK1 (human)): 100%
kinase still bound, per cent of control (ITK (human)): 100%
kinase still bound, per cent of control (LATS1 (human)): 100%
kinase still bound, per cent of control (RPS6KB1 (human)): 52%
kinase still bound, per cent of control (SRC (human)): 38%
kinase still bound, per cent of control (PAK4 (human)): 31%
kinase still bound, per cent of control (NEK3 (human)): 0.75%
kinase still bound, per cent of control (DMPK (human)): 85%
kinase still bound, per cent of control (CDKL3 (human)): 45%
kinase still bound, per cent of control (KDR (human)): 75%
kinase still bound, per cent of control (LIMK2 (human)): 60%
kinase still bound, per cent of control (ROCK1 (human)): 52%
